Data reported in the NIST ThermoML archive (doi:10.1016/j.fluid.2009.04.009).
± gives the expanded uncertainty stated by the source.

Test: xn = mol fraction of the nth substance listed
Conditions: Liquid, Single crystal variable path ultrasonic interferometer operating at 2 MHz

CN(C)C=O [dimethylformamide] + CO
speed of sound (303 K, Frequency=2 MHz / Mass density=801.17 kg/m3, x1 = 0.4): 1201.2 ± 0.4 m/s
speed of sound (303 K, Frequency=2 MHz / Mass density=818.7 kg/m3, x1 = 0.2): 1133.8 ± 0.3 m/s
speed of sound (303 K, Frequency=2 MHz / Mass density=853.8 kg/m3, x1 = 0.6): 1249.2 ± 0.3 m/s
speed of sound (303 K, Frequency=2 MHz / Mass density=888.88 kg/m3, x1 = 0.8): 1339.4 ± 0.5 m/s
speed of sound (303 K, Frequency=2 MHz / Mass density=953.21 kg/m3, x1 = 1): 1469.8 ± 0.8 m/s
speed of sound (308 K, Frequency=2 MHz / Mass density=794.11 kg/m3, x1 = 0.4): 1187.4 ± 0.4 m/s
speed of sound (308 K, Frequency=2 MHz / Mass density=811.76 kg/m3, x1 = 0.2): 1126.8 ± 0.3 m/s
speed of sound (308 K, Frequency=2 MHz / Mass density=852.94 kg/m3, x1 = 0.6): 1243.4 ± 0.4 m/s
speed of sound (308 K, Frequency=2 MHz / Mass density=888.23 kg/m3, x1 = 0.8): 1320 ± 0.3 m/s
speed of sound (308 K, Frequency=2 MHz / Mass density=952.94 kg/m3, x1 = 1): 1433.2 ± 0.6 m/s
speed of sound (313 K, Frequency=2 MHz / Mass density=786.98 kg/m3, x1 = 0.4): 1169.2 ± 0.4 m/s
speed of sound (313 K, Frequency=2 MHz / Mass density=798.81 kg/m3, x1 = 0.2): 1110.8 ± 0.4 m/s
speed of sound (313 K, Frequency=2 MHz / Mass density=846.15 kg/m3, x1 = 0.6): 1219.4 ± 0.5 m/s
speed of sound (313 K, Frequency=2 MHz / Mass density=881.65 kg/m3, x1 = 0.8): 1313.2 ± 0.4 m/s
speed of sound (313 K, Frequency=2 MHz / Mass density=952.66 kg/m3, x1 = 1): 1418 ± 0.4 m/s
speed of sound (318 K, Frequency=2 MHz / Mass density=773.8 kg/m3, x1 = 0.4): 1152 ± 0.4 m/s
speed of sound (318 K, Frequency=2 MHz / Mass density=785.71 kg/m3, x1 = 0.2): 1097.7 ± 0.2 m/s
speed of sound (318 K, Frequency=2 MHz / Mass density=833.33 kg/m3, x1 = 0.6): 1208 ± 0.3 m/s
speed of sound (318 K, Frequency=2 MHz / Mass density=875 kg/m3, x1 = 0.8): 1275.4 ± 0.5 m/s
speed of sound (318 K, Frequency=2 MHz / Mass density=952.38 kg/m3, x1 = 1): 1402.2 ± 0.5 m/s
speed of sound (323 K, Frequency=2 MHz / Mass density=754.49 kg/m3, x1 = 0.4): 1136 ± 0.3 m/s
speed of sound (323 K, Frequency=2 MHz / Mass density=778.44 kg/m3, x1 = 0.2): 1095.4 ± 0.3 m/s
speed of sound (323 K, Frequency=2 MHz / Mass density=803.35 kg/m3, x1 = 0.6): 1189 ± 0.3 m/s
speed of sound (323 K, Frequency=2 MHz / Mass density=868.26 kg/m3, x1 = 0.8): 1257.2 ± 0.4 m/s
speed of sound (323 K, Frequency=2 MHz / Mass density=952.09 kg/m3, x1 = 1): 1374.8 ± 0.6 m/s

CO [methanol] + CN(C)C=O
speed of sound (303 K, Frequency=2 MHz / Mass density=771.9 kg/m3, x2 = 0): 1089 ± 0.5 m/s
speed of sound (308 K, Frequency=2 MHz / Mass density=764.7 kg/m3, x2 = 0): 1069.6 ± 0.4 m/s
speed of sound (313 K, Frequency=2 MHz / Mass density=757.4 kg/m3, x2 = 0): 1057.2 ± 0.4 m/s
speed of sound (318 K, Frequency=2 MHz / Mass density=750 kg/m3, x2 = 0): 1033.2 ± 0.5 m/s
speed of sound (323 K, Frequency=2 MHz / Mass density=718.6 kg/m3, x2 = 0): 1008 ± 0.3 m/s
